Molecules are shown by their SMILES. Where two headings read alike, the source gives them in different places.

For test [1], the target named is Prolyl endopeptidase. The following applies: read-out: does not inhibit Prolyl endopeptidase; cited from earlier work.
For test [2], the target named is T1, hDPP-9 (Homo sapiens, UniProt Q86TI2). On the set-up: method as in PMID 16186403, PMID 16731832. The conditions noted are these: read-out: does not inhibit DPP-9 at; cited from earlier work.
The test system of test [3] is Fibroblast activation protein. The following applies: read-out: does not inhibit Fibroblast activation protein; cited from earlier work.
In test [4] the test system is T cell-dependent antibody responses to NP-CGG. The test can be described thus: T cell-dependent antibody responses to NP-CGG (ELISA titers, altered ligand density ELISA). Format: in vivo, C57BL/6 mice. The conditions noted are these: mice on chow ~400 mg/kg, immunized with NP-CGG. The procedure: Mice were immunized i.p. with 100 μg of NP-CGG in alum for the primary immunization, and 100 μg of NP-CGG in PBS i.p. for the secondary immunization. Mice were bled via the retro orbital sinus at indicated times and the levels of anti-NP and CGG antibodies and their isotypes were determined by ELISA as described previously. Briefly, mouse serum antibodies were immobilized onto 96-well plates coated with NP-BSA or CGG and detected with biotin-conjugated anti-mouse immunoglobulins. […] Relative affinities of serum antibodies were evaluated by using altered ligand density ELISA as described earlier.

For test [5], the target named is Proline dipeptidase. The following applies: read-out: does not inhibit Proline dipeptidase; cited from earlier work.
Test [6] has as its target hDPP-2 (Homo sapiens, UniProt Q9UHL4). The test can be described thus: DPP-2 enzyme inhibition. Format: biochemical.
Test [7] deals with Amino peptidase P. The conditions noted are these: read-out: does not inhibit Amino peptidase P; cited from earlier work.
Test [8] concerns H-Y+ target cells (male splenocytes). The test can be described thus: In vivo cytotoxicity (CTL) assay against H-Y antigen. Details: species or system C57BL/6 mice. The conditions noted are these: for killing of male cells (CD8 T cell mediated): female mice primed and boosted with male splenocytes, CFSE-labeled targets, FACS, n = 8. The procedure: C57BL/6 female and male mice, age 8 ~10 weeks, were used for in vivo cytotoxicity assays. Female mice were immunized i.p. with syngeneic C57BL/6 male splenocytes (1 × 10^7 in 100 μl PBS) at day 0 and boosted at day 10 to generate anti-H-Y cytotoxic T cells. The in vivo CTL assay was performed as described earlier with some modifications Target cells were prepared and adoptively transferred to recipient female mice at day 18 post priming and specific killing of target H-Y^+ cells was analyzed at day 19. Briefly, male and female C57BL/6 naïve splenocytes were isolated and depleted of erythrocyte with RBC lysis buffer (Sigma-Aldrich, St. Louis, MO, USA). The splenocytes were washed 1× with 10% FBS RPMI 1640 and 2× with PBS. The cell densities were adjusted to 2×10^7 cells/ml. Male splenocytes were labeled with a high concentration (5 μM) of 5,6-carboxy-fluorescein succinimdyl ester (CFSE, Molecular Probes, Eugene, OR, USA), and the female splenocyte were labeled with low CFSE (0.5 μM). CFSE labeling was carried out by incubating 2 × 10^7 cells/ml in PBS with CFSE at 37°C in a 5% CO2 incubator for 10 min and quenched by adding 10% FBS RPMI to a final volume of 50 ml. Cells were washed 1× with 10%FBS RPMI and 2× with PBS to remove free CFSE. Male and female splenocytes were mixed 1:1 in PBS for the adoptive transfer. 10^6 cells in 200 μl PBS were injected into recipient female mice via tail vein injection. Similar amounts of cell were injected into the control unimmunized female mice. Spleens from the recipient mice were harvested after 16 hr, and splenocytes were analyzed for specific killing of H-Y^+ target cells by FACS. At least 5,000 CFSE positive cells were analyzed. The recovery and percent killing of the CFSE-labeled targets were calculated as follows: […]

The target in test [9] is Prolidase. The following applies: read-out: does not inhibit Prolidase; cited from earlier work.
Test [10] has as its target T1, hDPP-9. The test can be described thus: DPP-9 enzyme inhibition. Format: biochemical.

T1 sequence (Q86TI2 whole entry): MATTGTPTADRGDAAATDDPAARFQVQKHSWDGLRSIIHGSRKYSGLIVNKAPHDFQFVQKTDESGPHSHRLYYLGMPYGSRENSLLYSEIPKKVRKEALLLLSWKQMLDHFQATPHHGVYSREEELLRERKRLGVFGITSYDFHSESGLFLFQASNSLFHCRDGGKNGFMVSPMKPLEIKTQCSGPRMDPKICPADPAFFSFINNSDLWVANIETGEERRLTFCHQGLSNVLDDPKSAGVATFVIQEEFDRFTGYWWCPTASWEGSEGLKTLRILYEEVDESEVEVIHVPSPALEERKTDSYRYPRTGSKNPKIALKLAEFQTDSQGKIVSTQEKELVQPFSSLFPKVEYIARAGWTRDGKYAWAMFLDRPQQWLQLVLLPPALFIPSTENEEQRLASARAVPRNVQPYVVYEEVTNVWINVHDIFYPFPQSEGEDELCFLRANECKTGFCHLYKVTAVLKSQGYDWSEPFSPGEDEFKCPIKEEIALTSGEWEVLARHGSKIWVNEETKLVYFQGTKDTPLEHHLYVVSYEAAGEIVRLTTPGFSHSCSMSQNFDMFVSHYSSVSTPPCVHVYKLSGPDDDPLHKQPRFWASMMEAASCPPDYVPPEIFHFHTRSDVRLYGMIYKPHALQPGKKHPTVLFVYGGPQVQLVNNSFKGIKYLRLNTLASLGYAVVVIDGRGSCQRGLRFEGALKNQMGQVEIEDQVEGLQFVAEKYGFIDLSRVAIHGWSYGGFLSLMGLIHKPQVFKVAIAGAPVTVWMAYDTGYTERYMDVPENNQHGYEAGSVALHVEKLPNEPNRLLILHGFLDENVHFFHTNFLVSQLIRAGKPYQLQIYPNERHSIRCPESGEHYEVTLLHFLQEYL

`N[C@@H](CC(=O)N1CCn2c(nnc2C(F)(F)F)C1)Cc1cc(F)ccc1F` [Des-flurositagliptin, des-fluro sitagliptin]: the IC50 in [1], in test [2], in test [3], in test [5], in test [6] and in test [7] was over 10 µM each time. The IC50 in test [9] and in [10] was over 10 µM in each case. The “titers of anti-CGG IgG1 and other isotypes, drug treated vs control animals” value in test [4] is given as “similar”. Further, in [4] (primary and secondary response vs control), the “total anti-NP response as measured by λ-bearing and G1 isotype” value is given as “unaltered”. For the same compound, the “killing of male cells (CD8 T cell mediated)” value in [8] is ~ 67%. Further, in test [8] (female mice primed with male cells, compound in chow throughout), the “CD8 T cell cytotoxicity in comparison to the wild type animals” value is “equivalent cytotoxicity”.

In the case of `C=CC[C@@H]1/C=C(\C)C[C@H](C)C[C@H](OC)[C@H]2O[C@@](O)(C(=O)C(=O)N3CCCC[C@H]3C(=O)O[C@H](/C(C)=C/[C@@H]3CC[C@@H](O)[C@H](OC)C3)[C@H](C)[C@@H](O)CC1=O)[C@H](C)C[C@@H]2OC` [FK506], in test [8], the “killing of male cells (CD8 T cell mediated)” value was 40%.
